These results are taken from patent US9107879B1, “Methods of increasing the cytotoxicity of chemotherapeutic agents with multisubstrate inhibitors of histone, protein-lys, polyamine acetylation, and polyamine metabolism” (Vanderbilt University, priority 2010, dated 2015).

Assay [1] has as its system DU 145 prostate cancer cells. Kind of assay: gamma-H2A.X immunofluorescence. The assay is classed as cell-based. The settings on record: 8 hours, 5 nM camptothecin alone. The text has this:
The immuno fluorescence images on the left and right sides of the middle scheme illustrate this visually. […] Cells were fixed and stained with a rabbit antibody to the histone variant, γ-H2A.X, a marker for DNA double stranded breaks, followed by staining with a fluorescein (FITC)-tagged goat anti rabbit secondary antibody. Nuclei were stained with Hoescht 33345.

Another assay has as its system γ-H2A.X in H358 cells. Kind of assay: double strand break / gamma-H2A.X Western and co-immunoprecipitation. The assay is classed as cell-based. The settings on record: 18 hours post-start; 1a 50 μM, 5FU 2 μM, cisplatin 2 μM, camptothecin 5 nM. As to the method: Also shown are controls for no treatment (“c” minus 1a) or treatment with 1a only (“c” plus 1a). Each lane represents 60 μg protein. […] Each lane represents 60 μg protein.
To measure DSB repair, cells were incubated for 1 hour with 10 μM camptothecin to induce DSBs, followed by incubation in the presence or absence of 50 μM 1a. At fixed times, histones were prepared by extraction in 0.2M H2SO4 as described previously and 50 μg extract was analyzed by 12% SDS-PAGE followed Western analysis as described previously, using rabbit polyclonal anti-γ-H2A.X [phosphor ser 139] (Novus Biologicals, Littleton, Colo.) or anti-H3 (Upstate Biotechnology, Inc, Lake Placid, N.Y.). Band intensities were quantitated digitally. To study acetylation of γ-H2A.X, we carried out co-immunoprecipitation analysis using 50 μg extract protein in immunoprecipitation buffer (10 mM sodium phosphate pH 7, 0.15 M NaCl, 0.1% SDS, 1% NP40, 1% sodium deoxycholate, aprotinin, 1 mM PMSF, complete protease inhibitors (Roche) using immobilized anti-acetyl-lysine (Millipore, Temecula, Calif.) in the immunoprecipitation step. The immunoprecipitated material was then analyzed as for Western analysis using anti γ-H2A.X.
Double strand breaks (DSBs) can be formed by a variety of DNA damaging agents, including camptothecin, cisplatin, 5FU, and UVC radiation (Avemann K, et al., 1988, Mol Cell Biol, 8: 3026-34; Bogdanov K V, et al. 1997, Br J Haematol, 98:869-72; Pavon M A, et al., Int J Cancer, 2008, 123:1068-79) implying that DSB repair may play a role in reducing their cellular toxicity. To examine how 1a treatment affects DSB repair in H358 cells we made use of the fact that the histone variant, H2A.X becomes phosphorylated at sites of double strand breaks (denoted γ-H2A.X), and can be detected by immunoblot analysis of acid extracted cells (Rogaku E P, et al., 1999, J Cell Biol, 146:905-16). […] Total H3 levels and H2A.X levels (control) are unaffected by these treatments (FIG. 4B). […]

In a further assay the test system is MCF7 breast cancer cells. The settings on record: 1a increasing concentrations; camptothecin 5 nM 18 hour. The protocol:
(A) [^3H]-thymidine incorporation into DNA of H358 cells (left panel) or MCF-7 cells (right panel) during a 6 hour pulse ending at the indicated time points after initiation of treatment. Treatments were 50 μM 1a alone, 5 nM camptothecin alone (CPT, 18 hours), 50 μM 1a+5 nm CPT (18 hours). Control cells were left untreated. (B) 2-day 96-well viability assays of H358 cells (left panel) or MCF-7 cells (right panel) grown in presence of increasing concentrations of 1a (continuous), with or without an 18-hour treatment with 5 nM camptothecin (CPT). Cell viability, represented as a percent of untreated cell viability (i.e., no 1a, no CPT), was determined 2 days post-start of treatment by the MTS bioconversion assay (MTS=(3-(4,5′-dimethylthiazol-2-yl)-5-(3-carboxymethoxylphenyl-2-(4-sulfophenyl)-2H-tetrazolium salt). Each data point represents the average of triplicate wells. Assays were carried out under conditions such that untreated cells remained in exponential growth. (C) [^3H]-thymidine incorporation into DNA of H358 cells carried out as in part “A”. Treatment consisted of 1a alone (50 μM), or cisplatin (2 μM, 1 hour, 15 minutes) alone or together with 1a (Panel 1); or UVC (40 J/m^2), alone or together with 1a (Panel 2); or 5-fluorouracil (5FU, 2 μM, 18 hours) alone or together with 1a (Panel 3), or Taxotere™ (5 nM, 18 hours), alone or together with 1a (Panel 4). Control cells were left untreated. Symbols are as follows: (-◯-) untreated control; (-●-) 50 μM 1a, (-∇-) drug or UVC alone; (-▾-) combination 1a+drug or UVC.
Viability was measured 3 days after the start of treatment and is expressed as a percentage of control (untreated) cell viability.
Each point is average of triplicates.
Date of exp: 7-17-2010; located p.21 in Hat notebook: KB-2 (2010-2011).
Cells were plated in 96-well plates (3000 cells per well) and incubated 18 hours with or without 5 nM camptothecin (Sigma, St Louis, Mo.). Triplicate wells were then treated with varying doses of 1a (from 0-50 μM). Control cells received neither 1a nor camptothecin. 2-day viability was determined by the MTS assay as previously (Saadatmandi et al., 2002, Cancer Gene Therapy, 9: 830-9) and expressed as a percentage of control cell viability.
The present inventors carried out 96-well viability assays as we have previously described (Saadatmandi et al, Cancer Gene Therapy (2002) 9:830-9), in which MCF7 breast cancer cells were plated at 3000 cells per well. After overnight attachment, triplicate wells were treated with increasing doses of inhibitor 1a. Control wells were left untreated. After 3 days, cell viability was measured by the MTS assay, which measures the bioconversion of an uncolored substrate to a colored formazan derivative, and is proportional to cell number. […]

For `CC[C@@]1(O)C(=O)OCc2c1cc1n(c2=O)Cc2cc3ccccc3nc2-1` [camptothecin], the “DNA damage by γ-H2A.X staining, single agent” value in assay [1] is given as “minimal damage”. In the assay on γ-H2A.X in H358 cells, the “γ-H2A.X level, single agent” value was “weakly detectable”. The “2-day cumulative cell viability relative to untreated, single agent” value with MCF7 breast cancer cells was “no effect”.
